For this assay, the system named is A. thaliana wild-type and double receptor mutant seedlings. The assay is described as follows: Lateral root formation of Arabidopsis seedlings. In kind it is in vivo, Arabidopsis thaliana. The settings on record: 1 and 5 nM BA alone, MS medium. How it is done: (A) Number of lateral roots formed by wild-type Arabidopsis seedlings (11 DAG)—from left: DMSO control, formation in the presence of cytokinin BA, or compound 8, and antagonism when both compounds were added. (B) Increase in number of lateral roots found with WT and double-receptor mutant seedlings grown on medium containing compound 8.
Cytokinins are known as negative regulators of root growth and development. We grew A. thaliana wild-type and double receptor mutant seedlings with decreased perception of cytokinins on MS medium containing either 1 and 5 nM cytokinin BA to confirm the cytokinin inhibitory effect on initiation of lateral roots, or 1 and 10 nM compound 8, or combination of these substances in concentrations indicated in FIG. 4A.

Regarding `c1ccc(CNc2ncnc3nc[nH]c23)cc1` [6-(benzylamino)purine], the “formation of lateral roots” value is listed as “inhibited formation of lateral roots”.

These data come from patent US20100240537A1, “Substituted 6-(alkylbenzylamino)purine derivatives for use as cytokinin receptor antagonists and preparations containing these derivatives” (priority 2007, published 2010).
